Test results published in patent US20240208997A1, “CYCLIC BENZIMIDAZOLE DERIVATIVES AS CGAS INHIBITORS” (Boehringer Ingelheim International GmbH, priority 2022, published 2024).

Columns and labels:
[1] = system: IFN induction in virus-stimulated THP1 cells; assay: Human cGAS cell assay, virus-stimulated THP1-Dual cells (THP1(vir) IC50); type: cell-based; settings: THP-1, 18 h, Table 1, baculovirus-stimulated THP1-Dual cells, Lucia luciferase, 18 h, read-out: THP(vir) IC50
Source text: (§1) 6.2 Method: Human cGAS Cell Assay and cGAMP Stimulated Counter Cell Assay (THP1(vir) IC50 and THP1(cGAMP) IC50)
THP1-Dual™ cells (InvivoGen #thpd-nfis) expressing IRF dependent Lucia luciferase reporter were used as basis for both assays. For the detection of cellular cGAS activity cells were stimulated by a baculovirus (pFastbac-1, Invitrogen, no coding insert) infection that delivers the cGAS enzyme stimulating double-stranded DNA (measurement of THP1(vir) IC50).
(§2) Pathway activity was monitored by measuring the Lucia luciferase activity induced by either DNA stimulated cGAS enzyme activity (measurement of THP1(vir) IC50) or by cGAMP directly (measurement of THP1(cGAMP) IC50, counter assay).
(§3) Compounds were delivered in 10 mM DMSO solution, serially diluted and transferred to the 384 well assay plate (Greiner #781201) using an Echo acoustic dispenser. Typically, 8 concentrations were used with the highest concentration at 10 μM in the final assay volume followed by ^˜1:5 dilution steps. DMSO concentration was set to 1% in the final assay volume. The 384 well assay plate contained […] (column 1-22), and DMSO in column 23 and 24.
(§4) Cells, cultivated according to manufacturer conditions, were harvested by centrifugation at 300 g/10 min and were then resuspended and diluted to 1.66E5 cells/ml in fresh cell culture medium (RPMI 1640 (Gibco #A10491-01), 10% FCS (Gibco #10500), 1× GlutaMax (Gibco #35050-061), 1× Pen/Strep solution (Gibco #15140-122), 100 μg/ml Normocin (InvivoGen #ant-nr), 100 μg/ml Zeocin (InvivoGen #ant-zn), 10 μg/ml Blasticidin S (Life Technologies #A11139-03)). The baculovirus solution was then added 1:200 (have varied according to virus batch) to the cells (measurement of THP1(vir) IC50).
(§5) 30 μL of the cell/virus-mix were added to each well of the compound plate from column 1-23 via MultiDrop Combi dispenser (5000 cells/well). In column 24, 30 μl/5000 cells/well without virus were added as a low control.
(§6) The plates were then incubated for 18 h at 37° C. in a humidified incubator.
(§7) Following that, 15 μL of QuantiLuc detection reagent (InvivoGen #rep-qlcg5) were added to each well using a MultiDrop Combi. Measurement was done immediately after the addition using an EnVision reader (US-luminescence read-mode).
(§8) Data Evaluation and Calculation:
(§9) For data evaluation and calculation, the measurement of the low control was set as 0% control and the measurement of the high control was set as 100% control. The IC50 values were calculated using the standard 4 parameter logistic regression formula. Calculation: [y=(a−d)/(1+(x/c)^b)+d], a=low value, d=high value; x=conc M; c=IC50 M; b=slope

[2] = system: IFN induction in cGAMP-stimulated THP1 cells; assay: cGAMP stimulated counter cell assay in THP1-Dual cells (THP1(cGAMP) IC50); type: cell-based, human; settings: Table 1; for IC50: Homo sapiens, THP-1, counter assay, 10 μM cGAMP stimulation, read-out: THP(cGAMP) IC50; for Ratio THP(cGAMP) IC50/THP(vir) IC50: selectivity for cGAS-inhibition
Source text: as §1
For the counter assay, cells were stimulated by cGAMP (SigmaAldrich #SML1232) to activate the identical pathway independent and directly downstream of cGAS (measurement of THP1(cGAMP) IC50).
as §2, §3, §4, §5, §6, §7, §8, §9

C[C@H]1CN2CC[C@@H]1n1c(nc3ccc(Cl)cc31)O[C@H]1C[C@@H](C(=O)O)N(C1)c1nc(nc3c1oc1ccccc13)CCOCCCC2=O [Example 1.06]
IC50 [1]: 4.1 nM
IC50 [2]: > 10000 nM
Ratio THP(cGAMP) IC50/THP(vir) IC50 [2]: >2417

C[C@H]1CN2CC[C@@H]1n1c(nc3cc(Cl)ccc31)O[C@H]1C[C@@H](C(=O)O)N(C1)c1nc(nc3c1oc1ccccc13)C(F)(F)CCCCCC2=O [Example 1.12]
IC50 [1]: 2.2 nM
IC50 [2]: 3600 nM
Ratio THP(cGAMP) IC50/THP(vir) IC50 [2]: 1620

C[C@H]1CN2CC[C@@H]1n1c(nc3ccc(Cl)cc31)O[C@H]1C[C@@H](C(=O)O)N(C1)c1nc(nc3c1oc1ccccc13)COCCCCC2=O [Example 1.10]
IC50 [1]: 13 nM
IC50 [2]: > 10000 nM
Ratio THP(cGAMP) IC50/THP(vir) IC50 [2]: >790

C[C@H]1CN2CC[C@@H]1n1c(nc3ccccc31)O[C@H]1C[C@@H](C(=O)O)N(C1)c1nc(nc3c1oc1ccccc13)C(F)(F)COCCCCC2=O [Example 3.01]
IC50 [1]: 0.44 nM
IC50 [2]: 14000 nM
Ratio THP(cGAMP) IC50/THP(vir) IC50 [2]: 32066

C[C@H]1CN2CC[C@@H]1n1c(nc3cc(F)ccc31)O[C@H]1C[C@@H](C(=O)O)N(C1)c1nc(nc3c1oc1cc(F)ccc13)C(F)(F)CCCCCC2=O [Example 1.15]
IC50 [1]: 7.1 nM
IC50 [2]: > 10000 nM
Ratio THP(cGAMP) IC50/THP(vir) IC50 [2]: >1408

O=C(O)[C@@H]1C[C@H]2CN1c1nc(nc3c1oc1ccccc13)CCOCCCC(=O)N1CCC(CC1)n1c(nc3ccc(F)cc31)O2 [Example 1.04]
IC50 [1]: 44 nM
IC50 [2]: > 10000 nM
Ratio THP(cGAMP) IC50/THP(vir) IC50 [2]: >229

C[C@H]1CN2CC[C@@H]1n1c(nc3cc(Cl)ccc31)O[C@H]1C[C@@H](C(=O)O)N(C1)c1nc(nc3c1oc1ccccc13)C(F)(F)CCCOCC2=O [Example 1.21]
IC50 [1]: 1.9 nM
IC50 [2]: > 10000 nM
Ratio THP(cGAMP) IC50/THP(vir) IC50 [2]: >5238

C[C@H]1CN2CC[C@@H]1n1c(nc3cccc(Cl)c31)O[C@H]1C[C@@H](C(=O)O)N(C1)c1nc(nc3c1oc1ccccc13)CC(=O)NCCCC2=O (racemic) [Example 2.01, (12S,14S)-4-chloro-37-methyl-29,34-dioxo-11,18-dioxa-2,9,15,26,30,35,40-heptaazaoctacyclo[33.2.2.1^12,15.1^16,27.0^2,10.0^3,8.0^17,25.0^19,24]hentetraconta-3,5,7,9,16(40),17(25),19(24),20,22,26-decaene-14-carboxylic acid]
IC50 [1]: 11 nM
IC50 [2]: > 10000 nM
Ratio THP(cGAMP) IC50/THP(vir) IC50 [2]: >948

C[C@H]1CN2CC[C@@H]1n1c(nc3ccccc31)O[C@H]1C[C@@H](C(=O)O)N(C1)c1nc(nc3c1oc1cc(F)ccc13)C(F)(F)CCCCCC2=O [Example 1.14]
IC50 [1]: 1.5 nM
IC50 [2]: 18000 nM
Ratio THP(cGAMP) IC50/THP(vir) IC50 [2]: 11920

C[C@H]1CN2CC[C@@H]1n1c(nc3ccccc31)O[C@H]1C[C@@H](C(=O)O)N(C1)c1nc(nc3c1oc1ccccc13)CCCCCCC2=O (racemic) [Example 1.24]
IC50 [1]: 170 nM
IC50 [2]: 11000 nM
Ratio THP(cGAMP) IC50/THP(vir) IC50 [2]: 65
